The term IC50 denotes the concentration at which inhibition is half-maximal.

Where two headings read alike, the source gives them in different places.

The source of these data is patent US20240109925A1, “Enhanced Anti-Proliferative and Antitumor Immune Effects of Mitochondria-Targeted Hydroxyurea” (The Medical College of Wisconsin, Inc., priority 2021, published 2024).

One assay concerns the target mitochondrial complex I (Homo sapiens, UniProt O75251+O75306+P03886). The experiment in a line: Complex I-dependent oxygen consumption (OCR), Seahorse XF-96, HCT116 cells. The class given is cell-based. The protocol:
FIG. 2. Effects of HU and Mito-HUs on the oxygen consumption by mitochondrial complexes I and III (A) Dose-dependent effects of HU, Mito10-HU, Mito12-HU, Mito14-HU, Mito16-HU, and Mito20-HU on complex I- and complex III-dependent oxygen consumption were measured in HCT116 cells. HCT116 cells were treated with HU or Mito-HUs as indicated for 24 hr. Mitochondrial complex I activity (left) and complex III activity (right) were monitored by a Seahorse XF-96 analyzer. Either rotenone (complex I inhibitor) or antimycin A (complex III inhibitor) was acutely added and OCR assayed immediately. (B) The mitochondrial complex I (left) and III (right) dependent oxygen consumption (calculated as rotenone or antimycin A inhibitable OCR) are plotted against concentration of HU and Mito-HUs. Dashed lines represent the fitting curves used for determination of the IC50 values. Data shown are the means G SD.
Mitochondrial oxygen consumption was measured using the Seahorse XF-96 Extracellular Flux Analyzer (Agilent, North Billerica, MA) (Cheng et al., 2013, 2016; Boyle et al., 2018; Weinberg and Chandel, 2015). After cells were treated with HU or Mito-HUs for 24 hr, the OCR-based assessment of mitochondrial complex activities was carried out on acutely permeabilized cells in the presence of different mitochondrial substrates, i.e., pyruvate/malate for complex I and duroquinol for complex III (Cheng et al., 2016, 2019; Salabei et al., 2014; Wheaton et al., 2014). Rotenone, malonate, and antimycin A (Sigma-Aldrich, St. Louis, MO) were used as specific inhibitors of mitochondrial complexes I, II, and III, respectively. Briefly, cells that were intact after treatments were immediately permeabilized using the Seahorse XF Plasma Membrane Permeabilizer (Agilent). The mitochondrial complex I-induced OCR was assayed in mannitol and sucrose buffer (Salabei et al., 2014) containing 10 mM pyruvate and 1.5 mM malate (substrates for complex I) and 10 mM malonate (which inhibits complex II activities). The mitochondrial complex III-driven OCR was assayed in a mannitol and sucrose buffer containing 0.5 mM duroquinol (substrate for complex III) as well as […] and 10 mM malonate (which inhibit both complex I and II activities). The IC50 values were determined as previously reported (Cheng et al., 2019).

In the next assay the test system is suppressive neutrophils. The experiment in a line: In vitro differentiation of MDSCs from bone marrow cells, flow cytometry. The class given is cell-based, mouse. The following applies: for IC50: Mus musculus, Neutrophil, 72 h, read-out: IC50 Suppressive Neutrophils (FIG. 6); for effect on suppressive neutrophils: three days. The source says: (§1) FIG. 5. In vitro differentiation of MDSCs and suppressive neutrophils in the presence of different concentrations of Mito14-HU and Mito-HUs with varying hydrophobicities (A) Scheme of differentiation of MDSCs. (B) Representative flow cytometry contour plots of in vitro differentiation of MDSCs under varying concentrations of Mito14-HU using FlowJo Software (FlowJo Software, 2019). (C) Summary data depicting distribution of MDSCs after three days treatment with Mito14-HU generated from panel (B). (D and E) (D) Dose-dependent effects of Mito-HUs with different side chain lengths on M-MDSC and (E) suppressive neutrophils. Dashed lines represent the fitting curves used for determination of the IC50 values. Data shown are the means & SD.
(§2) MDSCs were generated from bone marrow cells isolated from C57b1/6 mice and cultured at a density of 1 3 10^6 cells/ml in RPMI with 10% fetal bovine serum and 25 ng/ml recombinant mouse GM-CSF (Shenandoah Biotechnology, Inc.) and 25 ng/ml recombinant mouse IL-6 (Shenandoah Biotechnology, Inc.) for three days. Then, cells were re-cultured in fresh media with inhibitors for an additional three days. Cells were scraped and examined by flow cytometry using the following markers: FITC-anti Ly6C (Biolegend, San Diego, CA), PE-Cy7 anti F4/80 (Biolegend), APC-Cy7 anti Ly6G (Biolegend), and Pacific Blue anti-CD11b (Biolegend). A gating strategy similar to that employed for the T cells was used in all MDSC differentiation assays, which were tested only on live cells after treatments. Flow cytometry data were acquired using a BD Celesta flow cytometer (BD Biosciences), and data were analyzed using FlowJo software (Treestar, Inc.).
For orientation: A flow cytometer gives signals particle by particle.

The next assay relates to M-MDSC. The assay is described as above. The assay is classed as cell-based, mouse. The following applies: for IC50: Mus musculus, Bone marrow cell.
Source text: as §1, §2

The mark [1] stands for this setting: mean ± SD; HCT116, 24 hr treatment; read-out: IC50 Complex I (FIG. 2).
Where [2] appears, read: 72 h, read-out: IC50 M-MDSC (FIG. 6).
Where [3] appears, read: read-out: IC50 frequency of M-MDSCs.

On to `NC(=O)NOCCCCCCCCCCCCCCCC[P+](c1ccccc1)(c1ccccc1)c1ccccc1.O=C([O-])C(F)(F)F` [Mito16-HU, 16-[(carbamoylamino)oxy]-hexadecyltriphenylphosphonium trifluoroacetate], for which, at mitochondrial complex I (HCT116, 24 hr), the “effect on complex I-induced oxygen consumption” value is “potently inhibited”. In addition, the IC50 on mitochondrial complex I (setting [1]) was determined as 0.8 ± 0.05 µM; in the assay with suppressive neutrophils, 0.56 ± 0.12 µM; with M-MDSC (setting [2]), 0.44 ± 0.11 µM; in the assay with M-MDSC (setting [3]), 0.44 µM. In the assay on suppressive neutrophils, the “effect on suppressive neutrophils” value is reported as “greater inhibitory effects”.
As for `NC(=O)NOCCCCCCCCCCCC[P+](c1ccccc1)(c1ccccc1)c1ccccc1.O=C([O-])C(F)(F)F` [Mito12-HU, 12-[(carbamoylamino)oxy]-dodecyltriphenylphosphonium trifluoroacetate], at mitochondrial complex I (HCT116, 24 hr), the “effect on complex I-induced oxygen consumption” value is reported as “potently inhibited”. The IC50 was 1.6 ± 0.16 µM on mitochondrial complex I (setting [1]), > 4 µM in the assay on suppressive neutrophils, 2.6 ± 0.11 µM in the assay with M-MDSC (setting [2]) and 2.6 µM with M-MDSC (setting [3]).
For the molecule `NC(=O)NO` [HU, Hydroxyurea], the “effect on complex I-induced oxygen consumption” value on mitochondrial complex I (HCT116, 24 hr) is on record as “no apparent effects”. On mitochondrial complex I (HCT-116; 10 μM, 24 hr, HCT116; n = 4; read-out: Complex I activity (OCR, % of control)), the remaining activity at 10 µM was 84.7%. Besides, the remaining activity at 30 µM on mitochondrial complex I (HCT-116; 30 μM, 24 hr, HCT116; n = 4; read-out: Complex I activity (OCR, % of control)) was determined as 77%. The remaining activity at 100 µM at mitochondrial complex I (HCT-116; 100 μM, 24 hr, HCT116; n = 4; read-out: Complex I activity (OCR, % of control)) is 87.9%. The remaining activity at 150 µM on mitochondrial complex I (HCT-116; 150 μM, 24 hr, HCT116; n = 4; read-out: Complex I activity (OCR, % of control)) amounted to 86.1%. At mitochondrial complex I (HCT-116; 200 μM, 24 hr, HCT116; n = 4; read-out: Complex I activity (OCR, % of control)), the remaining activity at 200 µM amounted to 86.5%. Besides, the remaining activity at 250 µM on mitochondrial complex I (HCT-116; 250 μM, 24 hr, HCT116; n = 4; read-out: Complex I activity (OCR, % of control)) is 91.3%. At mitochondrial complex I (HCT-116; 300 μM, 24 hr, HCT116; n = 4; read-out: Complex I activity (OCR, % of control)), the remaining activity at 300 µM amounted to 85.7%. Also, the remaining activity at 400 µM at mitochondrial complex I (HCT-116; 400 μM, 24 hr, HCT116; n = 4; read-out: Complex I activity (OCR, % of control)) stood at 70.5%. Moreover, on mitochondrial complex I (HCT-116; 500 μM, 24 hr, HCT116; n = 4; read-out: Complex I activity (OCR, % of control)), the remaining activity at 500 µM was 82.1%. For the same molecule, on mitochondrial complex I (HCT-116; 1000 μM, 24 hr, HCT116; n = 4; read-out: Complex I activity (OCR, % of control)), the remaining activity at 1000 µM was determined as 80.2%. For the same molecule, the remaining activity at 3000 µM at mitochondrial complex I (HCT-116; 3000 μM, 24 hr, HCT116; n = 4; read-out: Complex I activity (OCR, % of control)) was 83.1%. Moreover, the IC50 at mitochondrial complex I (read-out: IC50 Complex I (FIG. 2); mean ± SD; HCT116, 24 hr treatment) was > 3000 µM; in the assay with suppressive neutrophils (mean ± SD, three days treatment), 18 ± 1.9 µM; in the assay with M-MDSC (72 h, mean ± SD, three days treatment, read-out: IC50 M-MDSC (FIG. 6)), 84 ± 2.8 µM.
With `NC(=O)NOCCCCCCCCCCCCCCCCCCCC[P+](c1ccccc1)(c1ccccc1)c1ccccc1.O=C([O-])C(F)(F)F` [Mito20-HU, 20-[(carbamoylamino)oxy]-eicosanyltriphenylphosphonium trifluoroacetate], the IC50 on mitochondrial complex I (setting [1]) was 0.8 ± 0.06 µM; in the assay with suppressive neutrophils, > 1 µM; in the assay with M-MDSC (setting [2]), 0.44 ± 0.09 µM; in the assay with M-MDSC (setting [3]), 0.44 µM.
Take `NC(=O)NOCCCCCCCCCCCCCC[P+](c1ccccc1)(c1ccccc1)c1ccccc1.O=C([O-])C(F)(F)F` [Mito14-HU, 14-[(carbamoylamino)oxy]-tetradecyltriphenylphosphonium trifluoroacetate]: on mitochondrial complex I (HCT116, 24 hr), the “effect on complex I-induced oxygen consumption” value is listed as “potently inhibited”. Further, the IC50 at mitochondrial complex I (setting [1]) came out at 1 ± 0.12 µM; with suppressive neutrophils, 0.94 ± 0.99 µM; with M-MDSC (setting [2]) it was 0.89 ± 0.1 µM; with M-MDSC (setting [3]), 0.89 µM. In addition, in the assay on suppressive neutrophils, the “effect on suppressive neutrophils” value is given as “dose-dependently inhibited”. Further, in the assay with M-MDSC (three days), the “effect on M-MDSC” value is “dose-dependently inhibited”.
Take `NC(=O)NOCCCCCCCCCC[P+](c1ccccc1)(c1ccccc1)c1ccccc1.O=C([O-])C(F)(F)F` [Mito10-HU, 10-[(carbamoylamino)oxy]-decyltriphenylphosphonium trifluoroacetate]: the “effect on complex I-induced oxygen consumption” value on mitochondrial complex I (HCT116, 24 hr) was “potently inhibited”. In addition, the IC50 at mitochondrial complex I (setting [1]) is 8.9 ± 1.22 µM; in the assay on suppressive neutrophils, > 20 µM; in the assay on M-MDSC (setting [2]), 9.6 ± 0.39 µM; in the assay with M-MDSC (setting [3]), 9.6 µM.
